The values that follow are results of earlier work, collected in patent US20070077258A1 (priority 2005, published 2007).

Data set [1] has as its system influenza virus in Madin-Darby Canine Kidney (MDCK) Cells.
Data set [2] relates to influenza virus in Normal Human Small Airway Epithelial Cells (SAEC).
For data set [3] the following is noted: 3 grams of glutathione by oral ingestion.

Like-named read-outs stand apart in the source and are kept apart here.

In the case of `N[C@@H](CCC(=O)N[C@@H](CS)C(=O)NCC(=O)O)C(=O)O` [glutathione, gamma-glutamyl-cysteinyl-glycine], the “replication of flu virus” value in data set [1] and in data set [2] was “prevention of replication of flu virus was demonstrated” each time. Besides, the tolerability entry is, setting by setting: (1500 mg /m2) “well tolerated”; (2500 mg daily for 5 days) “well tolerated”. The toxicity reported result (in vivo) is listed as “No toxicity”. Further, the “effect on plasma glutathione levels” value in data set [3] was “does not elevate plasma glutathione levels”.
